The results in this text go back to patent US8951986B2, “Salts of HIV inhibitor compounds” (Gilead Sciences, Inc., priority 2008, dated 2015).

One assay deals with HIV-1 BaL. As to the kind of experiment: Anti-HIV-1 activity in activated PBMC, p24 ELISA. The class given is cell-based. Particulars: activated PBMC infected with HIV-1 BaL, 5 days, mean ± SD. How it is done:
Activated PBMC were infected with HIV-1 BaL for 3 hours, washed, seeded into 96-well plates (250,000 cells/well) and incubated with serial dilutions of tested compounds for 5 days, at which point cell supernatants were collected and virus production was determined using commercial HIV-1 p24 ELISA (Beckman Coulter, Miami, Fla.).
(In general: In an ELISA, binding on a coated surface is turned into a signal by an enzyme label.)

A further assay deals with HIV-1 IIIB. Briefly: Anti-HIV-1 activity in MT-2 cells, virus-induced cytopathic effect (CellTiter-Glo). The following applies: MT-2 cells infected with HIV-1 IIIB, 5-day incubation; mean ± SD. The class given is cell-based. How it is done:
MT-2 cells were maintained in RPMI-1640 medium supplemented with antibiotics and 10% fetal bovine serum (FBS). MT-2 cells were infected with HIV-1 IIIB at a multiplicity of infection (moi) of 0.01 and added to 96-well plates with serial dilutions of tested compounds at a density of 20,000 cells/well. […] Activity against NRTI-resistant mutants was determined in parallel with wild-type control virus and fold change in EC50 was calculated.

What is called EC50 is the midpoint of the concentration-response curve. The low end stands for higher potency in that assay, the high end for lower potency in that assay. Turning to `Nc1ncnc2c1ncn2[C@@H]1O[C@H](OCP(=O)(O)O)C=C1F` [Parent Compound], the EC50 in the assay on HIV-1 BaL was 8.5 ± 7.7 µM; with HIV-1 IIIB, 10.6 ± 2.4 µM.
